In patent US4420481A, “Use of piperazine compounds as immunopotentiating agents” (Mitsuitoatsu Chemicals Inc., priority 1980, dated 1983):
Where a name gives a salt, the structure may show the parent alone.

Key:
[1] = test system: delayed hypersensitivity; experiment: Test 1: Test of Reinforcement of Delayed Hypersensitivity; type: in vivo, ICR male mice; conditions: mouse
Description: Various test systems using animals have been proposed for determining the immunopotensiative action. Results of the test of reinforcement of the delayed hypersensitivity, which is a typical test among these tests, will now be described.
This system was used for the test of reinforcement of the delayed hypersensitivity.
One groups of eight ICR male mice, each having a body weight of about 30 g, were used for the test.
Sensitization was effected by coating a 7% solution of picryl chloride in a 4/1 mixture of olive oil and acetone on the shaved abdomen of the mouse.
Simultaneously with sensitization, a solution or suspension of the compound of the present invention in a 0.2% solution of carboxymethyl cellulose in a physiological saline solution was orally administered to the mouse at a dose of 50 mg per Kg of the body weight. To the control group, a 0.2% carboxymethyl cellulose solution in a physiological saline solution was similarly administered.
The delayed hypersensitivity was challenged 7 days after sensitization by gripping the ear of the mouse by a forceps wrapped with a felt impregnated with a 1% solution of picryl chloride in olive oil and coating the ear with the solution. The thickness of the ear was measured before challenging and 24 hours after challenging and the ratio of increase of the thickness (average value of both the ears in eight mice±standard deviation) was obtained as shown in Table 1.
For comparison, the test was similarly carried out by using Levamisol hydrochloride, and the obtained results are shown in Table 1. F.t tests were carried out. The group in which the test result was significant at a level of P<0.05 was marked by *, and the group in which the test result was significant at a level of P<0.01 ws marked by **.

[2] = test system: adjuvant arthritis; experiment: Test 2: Adjuvant Arthritis Test; type: in vivo, SD male rats; conditions: rat, 5 mg/Kg subcutaneous, 9 times, left hind leg, * P<0.05, ** P<0.01
[3] = test system: EL-4 leukemic cells; experiment: Test 3: In-Vitro Test of Inhibition of Growth of Cancer Cell by Macrophage; type: cell-based; conditions: for Take-In Ratio of 3H-thymidine (average value): 8 mg/Kg intraperitoneal to mice, macrophages collected after 4 days, with EL-4 cells, control 80.2
Method: The results of the test of the action of the effective ingredient of the present invention on the macrophage will now be described with reference to the following Test 3. More specifically, the separated macrophage and EL-4 leukemic cell were mixed and cultured, and ^3 H-thymidine was added to a culture medium and the quantity of ^3 H-thymidine incorporated into the EL-4 cell was determined to examine the activity of the macrophage. When the macrophage is activated by administration of the effective ingredient of the present invention, inhibition of the growth of EL-4 cell, that is, phagocytosis of the cancer cell by the macrophage, is observed. Accordingly, if the take-in amount of ^3 H-thymidine is measured and this amount is reduced, it is confirmed that the macrophage has been activated. […] The dose was 8 mg per Kg of the body weight. To the control group, a physiological saline solution was similarly administered. After passage of 4 days, exuded abdominal cells were collected and deposited on a plastic Petri dish to collect microphages. Then, 1×10^6 of so obtained macrophages and 1×10^5 of EL-4 leukemic cells of C57 BL/6J mouse were mixed with cultured in an RPM1 1640 culture medium to which 10% of bovine embryo serum was added (at 37° C. in the presence of 5% of CO2) for 24 hours. Then, 0.1μ Ci of ^3 H-thymidine was added and culturing was further conducted for 16 hours. Cells were collected on a filter paper from the culture medium and the amount of ^3 H-thymidine taken in was determined by a liquid scintillation counter. […] For comparison, the test was similarly carried out by using Levamisol hydrochloride. Results

[4] = test system: Sarcoma 180; experiment: Test 4: Test of Antitumor Effect to Sarcoma 180 by Oral Administration; type: in vivo, ICR female mice; conditions: for D: average diameter of tumor: 100 mg/Kg oral once a day, 10 days
Method: To the control group, a physiological saline solution was similarly administered. The dose of the compound was 100 mg per Kg of the body weight. The diameter D (mm) of the tumor was measured, and the average value and the number N of the living mice were determined to obtain results shown in Table 4.

[5] = test system: Sarcoma 180; experiment: Test 5: Test of Carcinostatic Effect to Sarcoma 180 by Subcutaneous Administration; type: in vivo, ICR female mice; conditions: 20 mg/Kg subcutaneous
Method: To the control group, a physiological saline solution was similarly administered. […] The diameter D (mm) of the tumor was measured, and the average value and the number N of the living mice were determined to obtain results shown in Table 4.

[6] = 0 weeks, 100 mg/Kg oral, control 6
[7] = 2 weeks, 100 mg/Kg oral, control 6
[8] = 4 weeks, 100 mg/Kg oral, control 6
[9] = 6 weeks, 100 mg/Kg oral, control 6
[10] = 8 weeks, 100 mg/Kg oral, control 5
[11] = 10 weeks, 100 mg/Kg oral, control 1
[12] = 50 mg/Kg oral, 24 hours after challenge, * P<0.05, ** P<0.01, control 29.6 ± 1.9

Compound: c1ccc([C@H]2CN3CCSC3=N2)cc1 [Levamisole.hydrochloride, reference compound]
- Ratio of Increase of Ear Thickness (average value ± Standard Variation) ([1]; in vivo): 35.6 ± 2.4%
- Swelling Ratio (average value ± standard variation) ([2]; 15 days, control 84.4 ± 9.0): 65.2 ± 5.9%
- Swelling Ratio (average value ± standard variation) ([2]; 18 days, control 103.2 ± 9.7): 69.3 ± 7.1%
- Swelling Ratio (average value ± standard variation) ([2]; 21 days, control 107.5 ± 13.3): 80.7 ± 9.6%
- activation of macrophage / phagocytosis of cancer cells (in words) ([3]; 8 mg/Kg intraperitoneal): hardly exhibits such action
- inhibition of take-in of 3H-thymidine by EL-4 leukemic cells (in words) ([3]; 8 mg/Kg intraperitoneal): does not exhibit such action
- Take-In Ratio of 3H-thymidine (average value) [3]: 49.0%
- N: number of living mice [4, 6]: 6
- carcinostatic action (in words) ([4]; 100 mg/Kg oral, repeated): no substantial carcinostatic action was observed
- D: average diameter of tumor ([4]; 2 weeks, control 10.6): 10.2 mm
- N: number of living mice [4, 7]: 6
- D: average diameter of tumor ([4]; 4 weeks, control 15.2): 16.2 mm
- N: number of living mice [4, 8]: 6
- D: average diameter of tumor ([4]; 6 weeks, control 22.4): 20.7 mm
- N: number of living mice [4, 9]: 6
- D: average diameter of tumor ([4]; 8 weeks, control 31.5): 29.6 mm
- N: number of living mice [4, 10]: 6
- D: average diameter of tumor ([4]; 10 weeks, control 37.6): 28.1 mm
- N: number of living mice [4, 11]: 6
- N: number of living mice ([5]; 0 weeks, control 6): 6
- carcinostatic activity (in words) [5]: no substantial carcinostatic activity
- N: number of living mice ([5]; 2 weeks, control 6): 6
- D: average diameter of tumor ([5]; 2 weeks, control 10.8): 7.7 mm
- N: number of living mice ([5]; 4 weeks, control 6): 6
- D: average diameter of tumor ([5]; 4 weeks, control 16.6): 14.8 mm
- N: number of living mice ([5]; 6 weeks, control 6): 6
- D: average diameter of tumor ([5]; 6 weeks, control 20.3): 14.4 mm
- N: number of living mice ([5]; 8 weeks, control 4): 3
- D: average diameter of tumor ([5]; 8 weeks, control 31.2): 30.2 mm
- N: number of living mice ([5]; 10 weeks, control 1): 2
- D: average diameter of tumor ([5]; 10 weeks, control 40.5): 31.6 mm

Compound: CN1CCN(C(=O)N2CCCC2)CC1 [drawing 7]
- Ratio of Increase of Ear Thickness (average value ± Standard Variation) [1, 12]: 36.7 ± 2.5%

Compound: CN1CCN(C(=O)N2CCCCC2)CC1 [drawing 8]
- Ratio of Increase of Ear Thickness (average value ± Standard Variation) [1, 12]: 43.5 ± 2.8%

Compound: O=C(N1CCCCC1)N1CCN(c2ccccc2)CC1 [drawing 9]
- Ratio of Increase of Ear Thickness (average value ± Standard Variation) [1, 12]: 45.0 ± 4.6%

Compound: CN1CCN(C(=O)N2CCCC2)CC1 [drawing 10]
- Swelling Ratio (average value ± standard variation) ([2]; 15 days, control 84.4 ± 9.0): 54.6 ± 11.3%
- Swelling Ratio (average value ± standard variation) ([2]; 18 days, control 103.2 ± 9.7): 61.7 ± 13.0%
- Swelling Ratio (average value ± standard variation) ([2]; 21 days, control 107.5 ± 13.3): 73.3 ± 14.6%

Compound: CN1CCN(C(=O)N2CCCCC2)CC1 [drawing 11]
- Swelling Ratio (average value ± standard variation) ([2]; 15 days, control 84.4 ± 9.0): 49.4 ± 10.3%
- Swelling Ratio (average value ± standard variation) ([2]; 18 days, control 103.2 ± 9.7): 62.0 ± 12.5%
- Swelling Ratio (average value ± standard variation) ([2]; 21 days, control 107.5 ± 13.3): 68.1 ± 14.0%

Compound: O=C(N1CCCCC1)N1CCN(c2ccccc2)CC1 [drawing 12]
- Swelling Ratio (average value ± standard variation) ([2]; 15 days, control 84.4 ± 9.0): 39.5 ± 11.7%
- Swelling Ratio (average value ± standard variation) ([2]; 18 days, control 103.2 ± 9.7): 56.1 ± 10.8%
- Swelling Ratio (average value ± standard variation) ([2]; 21 days, control 107.5 ± 13.3): 74.4 ± 13.9%

Compound: CN1CCN(C(=O)N2CCCC2)CC1 [drawing 13]
- Take-In Ratio of 3H-thymidine (average value) [3]: 25.7%

Compound: CN1CCN(C(=O)N2CCCCC2)CC1 [drawing 14]
- Take-In Ratio of 3H-thymidine (average value) [3]: 22.6%

Compound: O=C(N1CCCCC1)N1CCN(c2ccccc2)CC1 [drawing 15]
- Take-In Ratio of 3H-thymidine (average value) [3]: 21.9%

Compound: CN1CCN(C(=O)N2CCCC2)CC1 [drawing 16]
- N: number of living mice [4, 6]: 6
- D: average diameter of tumor ([4]; 2 weeks, control 10.6): 7.7 mm
- N: number of living mice [4, 7]: 6
- D: average diameter of tumor ([4]; 4 weeks, control 15.2): 6.3 mm
- N: number of living mice [4, 8]: 6
- D: average diameter of tumor ([4]; 6 weeks, control 22.4): 5.5 mm
- N: number of living mice [4, 9]: 6
- D: average diameter of tumor ([4]; 8 weeks, control 31.5): 4.7 mm
- N: number of living mice [4, 10]: 6
- D: average diameter of tumor ([4]; 10 weeks, control 37.6): 0 mm
- N: number of living mice [4, 11]: 6

Compound: CN1CCN(C(=O)N2CCCCC2)CC1 [drawing 17]
- N: number of living mice [4, 6]: 6
- D: average diameter of tumor ([4]; 2 weeks, control 10.6): 6.0 mm
- N: number of living mice [4, 7]: 6
- D: average diameter of tumor ([4]; 4 weeks, control 15.2): 4.7 mm
- N: number of living mice [4, 8]: 6
- D: average diameter of tumor ([4]; 6 weeks, control 22.4): 4.8 mm
- N: number of living mice [4, 9]: 6
- D: average diameter of tumor ([4]; 8 weeks, control 31.5): 3.3 mm
- N: number of living mice [4, 10]: 6
- D: average diameter of tumor ([4]; 10 weeks, control 37.6): 0 mm
- N: number of living mice [4, 11]: 6

Compound: O=C(N1CCCCC1)N1CCN(c2ccccc2)CC1 [drawing 18]
- N: number of living mice [4, 6]: 6
- D: average diameter of tumor ([4]; 2 weeks, control 10.6): 6.2 mm
- N: number of living mice [4, 7]: 6
- D: average diameter of tumor ([4]; 4 weeks, control 15.2): 3.8 mm
- N: number of living mice [4, 8]: 6
- D: average diameter of tumor ([4]; 6 weeks, control 22.4): 4.4 mm
- N: number of living mice [4, 9]: 6
- D: average diameter of tumor ([4]; 8 weeks, control 31.5): 5.3 mm
- N: number of living mice [4, 10]: 6
- D: average diameter of tumor ([4]; 10 weeks, control 37.6): 0 mm
- N: number of living mice [4, 11]: 6

Compound: CN1CCN(C(=O)N2CCCC2)CC1 [drawing 19]
- N: number of living mice ([5]; 0 weeks, control 6): 6
- N: number of living mice ([5]; 2 weeks, control 6): 6
- D: average diameter of tumor ([5]; 2 weeks, control 10.8): 2.2 mm
- N: number of living mice ([5]; 4 weeks, control 6): 6
- D: average diameter of tumor ([5]; 4 weeks, control 16.6): 3.6 mm
- N: number of living mice ([5]; 6 weeks, control 6): 6
- D: average diameter of tumor ([5]; 6 weeks, control 20.3): 6.1 mm
- N: number of living mice ([5]; 8 weeks, control 4): 6
- D: average diameter of tumor ([5]; 8 weeks, control 31.2): 1.2 mm
- N: number of living mice ([5]; 10 weeks, control 1): 5
- D: average diameter of tumor ([5]; 10 weeks, control 40.5): 0 mm

Compound: CN1CCN(C(=O)N2CCCCC2)CC1 [drawing 20]
- N: number of living mice ([5]; 0 weeks, control 6): 6
- N: number of living mice ([5]; 2 weeks, control 6): 6
- D: average diameter of tumor ([5]; 2 weeks, control 10.8): 1.6 mm
- N: number of living mice ([5]; 4 weeks, control 6): 6
- D: average diameter of tumor ([5]; 4 weeks, control 16.6): 3.7 mm
- N: number of living mice ([5]; 6 weeks, control 6): 6
- D: average diameter of tumor ([5]; 6 weeks, control 20.3): 5.7 mm
- N: number of living mice ([5]; 8 weeks, control 4): 6
- D: average diameter of tumor ([5]; 8 weeks, control 31.2): 0.8 mm
- N: number of living mice ([5]; 10 weeks, control 1): 6
- D: average diameter of tumor ([5]; 10 weeks, control 40.5): 0 mm

Compound: O=C(N1CCCCC1)N1CCN(c2ccccc2)CC1 [drawing 21]
- N: number of living mice ([5]; 0 weeks, control 6): 6
- N: number of living mice ([5]; 2 weeks, control 6): 6
- D: average diameter of tumor ([5]; 2 weeks, control 10.8): 2.4 mm
- N: number of living mice ([5]; 4 weeks, control 6): 6
- D: average diameter of tumor ([5]; 4 weeks, control 16.6): 3.9 mm
- N: number of living mice ([5]; 6 weeks, control 6): 6
- D: average diameter of tumor ([5]; 6 weeks, control 20.3): 5.2 mm
- N: number of living mice ([5]; 8 weeks, control 4): 6
- D: average diameter of tumor ([5]; 8 weeks, control 31.2): 0.2 mm
- N: number of living mice ([5]; 10 weeks, control 1): 6
- D: average diameter of tumor ([5]; 10 weeks, control 40.5): 0 mm
